US20080124310A1, “Bead based receptor biology” (priority 2006, published 2008)
Entries after “also recorded” stand apart in the source; their conditions may differ.

Experiments:
[1] = system: RAW cells; assay: Cellular cholesterol extraction, filipin staining; format: cell-based, murine; conditions: brief incubation
Description: Cholesterol levels were quantified by the esterase assay, oil red- and filipin-staining.

[2] = system: RAW 264.7 macrophages; assay: Phagocytic receptor assay: engulfment of IgG or ligand coated particles by RAW macrophages (foam cell model), confocal; format: cell-based, murine; conditions: for engulfment / accumulation of IgG or ligand coated particles: RAW macrophages, confocal
Description: FIG. 25, panels A and B, illustrate respectfully a method for measurement of phagocytic receptors and a method for measuring transfection or delivery of nucleic acids and simultaneous measurement of particle engulfment using a single cell multi label confocal microscope experiment. A direct or surrogate measurement of receptor function or receptor pathway activity must be made in order establish the role of potential therapeutic target proteins in receptor function. IgG, complement, low density lipoprotein (LDL), oxidatively modified LDL (OX-LDL). Acetyl-LDL, apolipoproteins, lipoproteins, lipopolysaccharide (LPS), scavenger and other receptor functions can be measured by the accumulation of particles. The particles may themselves be comprised in part of fluorescent materials or can be directly stained with fluorescent or other colored materials or can be bound by proteins that directly or indirectly permit the attachment of fluorescent, chemiluminescent or other reporter molecules. The beads may be stained in live cells or cells fixed with formalin or paraformaldehyde or organic solvents such as alcohol and acids or by other means. The beads can be stained both before or after internalization with or without the permeabilization of the cells by detergents or organic solvents. The beads may be cells that can be lysed and imaged directly. The cells may be counter stained for the presence of specific proteins using antibodies or may express fluorescent protein constructs or contain fluorescent silencing RNA or DNA constructs or biopolymer modulating agents or drugs (FIG. 25).
We created a foam cell model and quantitative confocal assays for micro particle engulfment by macrophages. The engulfment of particles by macrophages and the generation of free radicals by leukocytes are the key physiological actions that lead to the generation of foam cells that are the center of atherosclerotic plaques. We made a cellular model system of foam cells or activated leukocytes and examine the effects of moderate levels of alcohol over time on the accumulation of particles and generation of free radicals at the site of particle accumulation compared to statins and propranolol. The model systems will consist of RAW macrophages that engulf hydrophobic polystyrene microparticles with or without coating by ligands or mixtures of ligands such as those found in cellular growth media, or free fluorescently labeled DI-LDL, OX-LDL, Acetyl LDL or other. Live cell confocal microscopy was used to quantify the effects of ethanol, compared to lovastatin and propranolol, on particle engulfment.
External particles were stained green with secondary anti rabbit FITC and then cells were permeablized and all particles stained red with secondary anti rabbit CY3. Thus engulfed particles appear red while external particles appear yellow. Beads within the cells carrying only the red signal (engulfed) and not also the green signal {red+green=yellow} (outside) were quantified for accumulation assays using both total fluorescence in the green channel and by counting individual beads in three fields on three independent cover slips for each concentration.
RAW 264.7 macrophages were cultured in alpha MEM with 5% fetal calf serum as described. The effects of lovastatin on IgG and LDL coated micro-particle engulfment at 0, 50 nM, 100 nM, 500 nM, 1 mM and higher was tested. The accumulation of free DI-LDL was quantified directly by its red fluorescence. External particles were stained green with secondary anti rabbit FITC and then cells were permeablized and all particles stained red with secondary anti rabbit CY3. Thus engulfed particles appear red while external particles appear yellow.

[3] = system: PI3K pathway to PIP3; assay: PIP3 accumulation at site of IgG coated particles measured with AKT/PH-GFP; format: cell-based, murine
Method: FIG. 27 illustrates the use of PiP3 binding PH domains to screen atherosclerosis drugs in macrophages.
The PI3K pathway that converts PIP4, 5 bis-phosphate to PIP3, 4, 5, triphosphate, also called PIP3. PIP3 is measured by the Pleckstrin Homology (PH) domain of the protein kinase AKT, that has a high affinity for PIP3, fused to GFP (AKT/PH-GFP). The accumulation of phosphatidyl inositol triphosphate at the site of IgG coated particles was inhibited using wortamannin, and LY294002 dissolved into the cell experimental media.

[4] = system: sheep red blood cells phagocytosis; assay: Phagocytosis of sheep red blood cells; format: cell-based; conditions: 15 to 30 minute incubation
[5] = system: PLD/PAP-1 pathway (DAG production); assay: DAG production at site of particle engulfment measured with PKC/C2-GFP; format: cell-based, murine
Description: FIG. 28 illustrates use of DAG binding domains to screen for atherosclerosis drugs in macrophages.

[6] = system: human neutrophils; assay: fMLP induced oxidative burst, cytochrome C reduction assay; format: cell-based
[7] = system: PLC; conditions: PLC-delta PH domain
Description: The metabolic activation of the receptor pathway at the binding site of modified beads such as ligand coated particles may be detected, measured and quantified using green fluorescence protein (GFP) fused with binding domains specific to different biopolymers, or modified biopolymers or metabolites in including phosphorylations at the site of modified particle or bead or binding.

[8] = system: PLD pathway; conditions: 500 micromolar; cited from earlier work
[9] = in vivo; cited from earlier work
[10] = system: RAW macrophages; assay: Biochemical measurement of protein levels in fractions of drug treated RAW macrophages; format: cell-based, murine; conditions: FIG. 67 cytosol fractions
Description: A now well established side effect of ethanol is to prevent heart attack. Thus the common effects of statins, propranolol, and ethanol must be closely linked to the central mechanism that is the most important pharmacological target of heart attack and thus atherosclerosis prevention. It remains possible that the preventative effect of statins results from their effect to inhibit particle engulfment and foam cell formation by macrophages leading to atherosclerotic plaques. We created a foam cell model and quantitative confocal assays for micro particle engulfment by macrophages. The engulfment of particles by macrophages and the generation of free radicals by leukocytes are the key physiological actions that lead to the generation of foam cells that are the center of atherosclerotic plaques. We have made a cellular model system of leukocytes or activated leukocytes or leukocytes treated over time to examine the effects drugs and biopolymer modification materials over time on the activation of receptors at the site of modified or ligand coated particles. The drugs used in this system to examine the kinetics of receptor function at modified particles may result in changes to the cell including changes in gene expression at the level of DNA transcription, RNA production, accumulation or post-transcription processing, mRNA production accumulation or expression all of which may also alter protein expression. We examined the use of these model systems with and without beads as a system to screen the effects of drugs that are known to prevent heart attack and stroke in model of leukocyte cells within atherosclerotic plaques. We observe that drugs that effect receptor associated signaling may also alter gene, RNA or ultimately protein expression in cells resulting in changes in protein levels. Proteins that change levels in response to a drug may be themselves drug target proteins.
The drugs used in the leukocyte model system to examine the kinetics of receptor function at modified particles may result in changes to the cell including changes in gene expression at the level of DNA transcription, RNA production, accumulation or post-transcription processing, mRNA production accumulation or expression all of which may also alter protein expression. We examined the use of these model systems with and without beads as a system to screen the effects of drugs that are known to effect receptor response at or near the cell surface or interior of the cells. We observe that drugs that effect receptor associated signaling may also alter gene, RNA or ultimately protein expression in cells resulting in changes in protein levels. Proteins that change levels in response to a drug may be themselves drug target proteins. […] The RAW leukocyte model foam cells system alone or in combination with the bead based biology system can be used to characterize the effects of receptor or cellular activation in terms of second messengers such as lipid and protein phosphorylation with respect to drug treatment or time in the cytosol of leukocytes (FIG. 67).

[11] = listed as Methyl-beta-cyclo-dextrin
[12] = listed as methyl beta cyclo dextrin

| Compound | engulfment / accumulation of IgG or ligand coated particles [2] | accumulation of PIP3 at the site of IgG coated particles [3] | fMLP induced oxidative burst (super oxide radicals) [6] | other results |
| --- | --- | --- | --- | --- |
| methyl-beta cyclodextrin [MBCD] | no effect on particle engulfment | did not prevent |  | extraction of cellular cholesterol [1, 11]: highly effective cholesterol scavenger; extraction of cellular cholesterol [1, 12]: effective to extract cholesterol; engulfment / accumulation of IgG or ligand coated particles [2, 11]: no effect on particle accumulation; engulfment / accumulation of IgG or ligand coated particles [2, 12]: little inhibitory effect; phagocytosis of sheep red blood cells [4]: no effect |
| CC(C)(C)n1nc(-c2ccc(Cl)cc2)c2c(N)ncnc21 [PP2] | inhibited |  |  |  |
| O=C1O/C(=C/Br)CCC1c1cccc2ccccc12 (centres unmarked) [HELSS] | prevent particle accumulation | no side effect on the PI3K pathway to PIP3 | inhibited the fMLP induced oxidative burst in a dose dependant manner | DAG production at the site of ligand coated bead binding [5]: prohibit DAG production; also recorded: inhibitory effect; PIP2 catalysis by PLC [7]: neither EtOH, HELSS or propranolol interfere with the catalytic action of PLC |
| CCCCC/C=C\C/C=C\C/C=C\C/C=C\CCCC(=O)C(F)(F)F [AACOCF3] |  |  | little effect on the oxidative burst | DAG production at the site of ligand coated bead binding [5]: Neither MAFP nor AACOCF3 prevent DAG production |
| CC(C)(C)NCC(O)COc1cccc2c1CC(O)C(O)C2 (centres unmarked) [nadolol] | do not inhibit particle engulfment |  | not as effective as the PAP-1 inhibitor propranolol |  |
| CC(C)NCC(O)COc1cccc2[nH]ccc12 (centres unmarked) [pindolol] | do not inhibit particle engulfment |  | not as effective as the PAP-1 inhibitor propranolol |  |
| CC(C)NCC(O)COc1ccc(CC(N)=O)cc1 (centres unmarked) [atenolol] | do not inhibit particle engulfment |  | not as effective as the PAP-1 inhibitor propranolol |  |
| COCCc1ccc(OCC(O)CNC(C)C)cc1 (centres unmarked) [metoprolol] | do not inhibit particle engulfment |  | not as effective as the PAP-1 inhibitor propranolol |  |
| CCO [ethanol] | prevent particle accumulation | no side effect on the PI3K pathway to PIP3 | inhibited the fMLP induced oxidative burst in a dose dependant manner | DAG production at the site of ligand coated bead binding [5]: prohibit DAG production; PIP2 catalysis by PLC [7]: neither EtOH, HELSS or propranolol interfere with the catalytic action of PLC |
| CCCC(=O)Nc1ccc(OCC(O)CNC(C)C)c(C(C)=O)c1 (centres unmarked) [acetbutolol] | do not inhibit particle engulfment |  | not as effective as the PAP-1 inhibitor propranolol |  |
| CCCCCCCC(=O)OCC(CO)OC(=O)CCCCCCC (centres unmarked) [DiC8] |  |  |  | reversal of PLD pathway inhibitor effect on particle engulfment ([2]; add-back of PLD pathway product): the effect is reversed by DiC8 |
| CC(C)NCC(O)COc1cccc2ccccc12 (centres unmarked) [propranolol] | prevent particle accumulation | no side effect on the PI3K pathway to PIP3 | inhibited the fMLP induced oxidative burst in a dose dependant manner; also recorded: much greater effect in preventing the generation of free radicals | DAG production at the site of ligand coated bead binding [5]: prohibit DAG production; engulfment / accumulation of IgG or ligand coated particles ([2]; listed as Propranolol): had the largest effect in preventing the engulfment; PIP2 catalysis by PLC [7]: neither EtOH, HELSS or propranolol interfere with the catalytic action of PLC; effect in in vitro experiments [8]: little effect; decrease in rate of heart attack [9]: about 35% |
| [F][Al-]([F])([F])[F] [AlF4] |  |  |  | levels of proteins after G protein stimulatory drug (FIG. 67) [10]: alter levels of proteins in the membranes |
| C=C1[C@@H](C)[C@H]2[C@H](Cc3ccccc3)NC(=O)[C@]23[C@H](OC(C)=O)/C=C/[C@@](C)(O)C(=O)[C@@H](C)C/C=C/[C@H]3[C@@H]1O [cytochalasin D] |  | inhibited |  |  |
